Laboratory results taken from patent US11084803B2, “Activators of class I histone deacetylases (HDACs) and uses thereof” (Massachusetts Institute of Technology, priority 2011, dated 2021).
Entries after “also recorded” stand apart in the source; their conditions may differ.

What was measured:
[1] = molecular target: T1, Recombinant, full-length human HDAC1 (Homo sapiens, UniProt Q13547); assay: Primary HDAC1 high-throughput screen, microfluidics-based deacetylase assay, single concentration; format: biochemical; settings: for Average activation % during HTS (10 μM): substrate FAM-TSRHKacKL; for Percent activation (%) Replicate 1 / Percent activation (%) Replicate 2: high-throughput screening, 6 h; for Average activation % during HTS (10 μM) / Percent activation (%) Replicate 1 / Percent activation (%) Replicate 2: 10 μM
T1 construct: FLAG (C); purchased BPS Biosciences (San Diego, Calif.); host or cells: insect cells (Sf9)
Experimental: Recombinant, full-length human HDAC1 (GenBank Accession No. NM_004964) with a C-terminal FLAG tag was produced by BPS Biosciences (San Diego, Calif.) using large-scale insect cell protein expression and purification in order to support a large-scale high-throughput screen (HTS).
Compounds were tested with a reaction time of 6 h with compounds tested at a single concentration (10 μM) in duplicate. As a positive control, the biflavonoid gingketin was chosen.
Compounds were tested in duplicate at 10 μM nominal final concentration in 384-well plate format. The reference activator compound, ginkgetin (50 μM), was included in duplicates in each HTS plate as a positive control condition, 24 negative control samples (DMSO only) were included in each plate to provide for the 0% activation baseline.
Within each HTS plate, the effect of individual compounds on the enzymatic activity of HDAC1 was calculated as % change in the conversion of the peptide substrate relative to the average substrate conversion value calculated across the 24 negative control samples.

recombinant HDAC1 = molecular target: T2, recombinant HDAC1 (Homo sapiens, UniProt Q13547); assay: Secondary HDAC1 microfluidics-based assay, 8-point dose response, substrate FAM-TSRHKacKL; format: biochemical; settings: for Emax: read-out: Maximum activation % during dose response (50 μM maximum); for AC50 / activation of up to (HDAC1): dose response 50 μM to 0.02 μM
T2 construct: FLAG (C); purchased BPS Biosciences (San Diego, Calif.); host or cells: insect cells (Sf9)

[2] = tested on: histone lysine residues known to be HDAC1 targets in HEK293T cells; assay: Histone acetylation in HEK293T cells by Western blot; format: cell-based, Human; settings: 10 μM or 50 μM, 20 h
Experimental: DAC compounds were added to HEK293T cells for 20 h. Vehicle was DMSO. Histones were acid-extracted and analyzed by Western blot for Ac-H3K56, Ac-H4K12, Ac-H3K14 and Ac-H2B. Histone 3 was used as the loading control.
Next, what was tested was whether a treatment of HDAC1 activators can increase HDAC1 enzymatic activity in cultured cells. Human HEK293T cells were treated with compounds at different concentrations (10 μM or 50 μM) for 20 h. Histone proteins were extracted, and Western blotting was used to analyze the acetylation of certain histone lysine residues known to be HDAC1 targets.

HT-22 cells [3] = assay: Etoposide-induced DNA damage stress in HT-22 cells, cell viability; format: cell-based; settings: 5 μM for DAC-001 and DAC-003, 10 μM for others; 3 h before 2 μM etoposide; 72 h; p<0.001
Experimental: (§1) HT-22 cells, a hippocampal neuron derived cell line, were used to model neurodegeneration. Two types of insults were used. […] Etoposide, a topoisomerase II inhibitor, stressed cells through DNA damage. These two types of stresses have been documented in neurodegenerative diseases.
Similarly, HT-22 cells were pre-incubated with compounds (5 μM for DAC-001 and DAC-003; 10 μM for others) for 3 h. Then, 2 μM etoposide was added to the culture medium. Cell viability was measured 72 h later (FIG. 5B).

DIV 14 cortical neurons = assay: Neuronal excitotoxicity model, MAP2 staining of dendrites; format: cell-based; settings: compound 20 h; 50 μM glutamate 1 h; p<0.01 for significant
Experimental: The neuroprotection potential of the candidate compounds were also tested using a neuronal excitoxicity model. DIV 14 cortical neurons were treated with the compounds for 20 h, 50 μM glutamate was added to the culture 1 h before processing the samples for immunocytochemistry. […] Ginkgetin was used as a positive control.

HT-22 cells [4] = assay: Glutamate-induced oxidative stress in HT-22 cells, CellTiter-Glo viability; format: cell-based; settings: compound 3 h before 2.5 mM glutamate; p<0.05 versus vehicle; 10 μM DAC-003
Experimental: as §1
HT-22 cells were treated with compounds for 3 h prior to the addition of 2.5 mM glutamate. Cell viability was measured by CellTiter-Glo assays (Promega) (FIG. 5A).

recombinant HDAC2 = recombinant HDAC2 (Homo sapiens, UniProt Q92769); assay: Microfluidics-based deacetylase assay with HDAC2; format: biochemical; settings: dose response
Experimental: (§2) Based upon the results of the HDAC1 activator screen performed, a total of 21 compounds (for structures, see FIGS. 6A to 6C) were initially selected as hits due to their ability to enhance the deacetylase activity of recombinant HDAC1. Those hits, designated as “DACs” (deacetylase activating compounds), were measured using a microfluidics-based assay with an acetylated peptidic substrate (FAM-TSRHKacKL) over a reaction time of 6 h. The 21 HTS hits plus two controls: ginkgetin (an activator) and TSA (trichostatin A, an inhibitor; for its structure, see FIG. 6A) were retested in an 8-point dose response ranging from 50 μM to 0.02 μM.
(§3) Microfluidics-based deacetylase assays were also performed using recombinant HDAC2, HDAC3, and HDAC8 to determine the selectivity of the compounds. Many of the confirmed compounds also activated HDAC2 isoform to a similar or even greater extent. Some compounds activated HDAC3 and inhibited the HDAC8 isoform.

recombinant HDAC3 = recombinant HDAC3 (Homo sapiens, UniProt O15379); assay: Microfluidics-based deacetylase assay with HDAC3; format: biochemical; parameters: dose or concentration left out as unconfirmed; settings: read-out: maximal effect (activation of HDAC3)
Experimental: as §2, §3

[5] = 8-point dose response 50 μM to 0.02 μM, 6 h

T1 sequence (Q13547 whole entry): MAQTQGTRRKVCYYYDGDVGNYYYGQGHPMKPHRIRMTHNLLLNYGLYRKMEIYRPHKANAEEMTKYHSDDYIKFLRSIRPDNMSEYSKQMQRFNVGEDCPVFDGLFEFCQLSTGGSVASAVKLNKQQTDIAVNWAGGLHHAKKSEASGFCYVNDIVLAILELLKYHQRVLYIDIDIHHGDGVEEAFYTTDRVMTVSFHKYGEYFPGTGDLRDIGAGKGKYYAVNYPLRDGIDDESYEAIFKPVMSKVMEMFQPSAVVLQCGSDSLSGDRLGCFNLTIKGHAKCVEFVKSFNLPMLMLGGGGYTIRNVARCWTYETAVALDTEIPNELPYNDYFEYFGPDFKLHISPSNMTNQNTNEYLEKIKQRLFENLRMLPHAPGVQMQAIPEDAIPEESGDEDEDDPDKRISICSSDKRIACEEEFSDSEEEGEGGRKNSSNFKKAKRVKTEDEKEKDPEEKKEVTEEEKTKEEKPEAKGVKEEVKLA
T2 sequence (Q13547 whole entry): as above
recombinant HDAC2, sequence (Q92769 whole entry, species assumed): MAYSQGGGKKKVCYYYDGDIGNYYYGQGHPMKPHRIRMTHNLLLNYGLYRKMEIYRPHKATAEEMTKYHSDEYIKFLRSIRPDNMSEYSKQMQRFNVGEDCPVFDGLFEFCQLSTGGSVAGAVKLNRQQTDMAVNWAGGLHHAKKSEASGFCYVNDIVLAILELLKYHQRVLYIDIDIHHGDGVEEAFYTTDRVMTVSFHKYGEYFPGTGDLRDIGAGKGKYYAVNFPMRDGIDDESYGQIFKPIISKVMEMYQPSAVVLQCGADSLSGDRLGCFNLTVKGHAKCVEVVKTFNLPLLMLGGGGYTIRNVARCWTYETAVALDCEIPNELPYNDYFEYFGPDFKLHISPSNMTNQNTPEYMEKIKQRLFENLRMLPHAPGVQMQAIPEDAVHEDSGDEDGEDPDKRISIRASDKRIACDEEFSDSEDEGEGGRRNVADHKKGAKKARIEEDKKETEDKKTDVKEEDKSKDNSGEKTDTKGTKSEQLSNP
recombinant HDAC3, sequence (O15379 whole entry, species assumed): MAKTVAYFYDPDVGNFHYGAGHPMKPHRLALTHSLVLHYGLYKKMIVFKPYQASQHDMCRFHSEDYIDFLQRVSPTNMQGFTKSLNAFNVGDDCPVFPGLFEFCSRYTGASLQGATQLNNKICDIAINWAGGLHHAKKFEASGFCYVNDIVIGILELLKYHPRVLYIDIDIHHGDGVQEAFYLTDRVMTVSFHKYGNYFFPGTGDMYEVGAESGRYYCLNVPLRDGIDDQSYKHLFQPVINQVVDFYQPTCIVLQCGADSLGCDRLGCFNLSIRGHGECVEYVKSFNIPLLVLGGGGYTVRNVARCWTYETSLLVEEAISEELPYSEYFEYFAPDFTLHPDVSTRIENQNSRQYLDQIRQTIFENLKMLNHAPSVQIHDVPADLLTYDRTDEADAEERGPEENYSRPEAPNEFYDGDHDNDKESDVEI
recombinant HDAC3, sequence (Q9Y618 395-489 partner limits assumed, species assumed): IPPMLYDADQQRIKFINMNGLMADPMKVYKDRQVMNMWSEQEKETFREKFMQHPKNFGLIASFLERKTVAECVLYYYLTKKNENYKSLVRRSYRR

Compound | Average activation % during HTS (10 μM) [1] [%] | conversion of peptidic substrate FAM-TSRHKacKL to FAM-TSRHKKL (microfluidic fluorescence reader trace) ([1]; FIG. 3A, 3B) | Percent activation (%) Replicate 1 [1] [%] | Percent activation (%) Replicate 2 [1] [%] | Emax (recombinant HDAC1; [5]) [%] | AC50 (recombinant HDAC1) [µM] | activation of up to (HDAC1) (recombinant HDAC1) | levels of acetylated histones (Ac-H3K56, Ac-H3K14, Ac-H4K12, Ac-H2B) [2] | protection against DNA damage stress (cell viability) (HT-22 cells [3]) | protection of neurons from excitotoxicity (retention of dendrites) (DIV 14 cortical neurons) | protection from oxidative stress (cell viability) (HT-22 cells [4]) | Average effect (positive control) ([1]; ginkgetin 50 μM, 580 measurements, standard deviation: 4%) [% activation] | Emax at 10 µM (recombinant HDAC1; plateau at 10 μM, read-out: maximal effect (activation of HDAC1)) [%] | AC50 (recombinant HDAC2) [µM] | Emax (recombinant HDAC2; read-out: maximal effect (activation of HDAC2)) [%] | Emax (recombinant HDAC3) [%] | Maximum activation % during dose response (50 μM maximum) (recombinant HDAC1; [5]) [%] | effect on HDAC isoforms in dose response (recombinant HDAC1; all HDAC isoforms)
Cc1ccc(C(=O)NC(=S)Nc2ccc(-c3ccc(CO)o3)cc2)cc1 [DAC-001] | 130.5 | increased conversion | 122.6 | 138.4 | 287 | 4.05 | up to 287% | reduced the levels of Ac-H3K56, Ac-H3K14, Ac-H4K12 and Ac-H2B | significantly protect cells from DSB-induced cell death; also recorded: significant protection | significant protection | – | – | – | – | – | – | – | –
Cc1cccc2c1[nH]c1nc(N/N=C/c3ccc(O)c(O)c3)nnc12 [DAC-003] | 24.6 | – | 24.2 | 24.9 | 34 | – | – | reduced the levels of Ac-H3K56, Ac-H3K14, Ac-H4K12 and Ac-H2B | significantly protect cells from DSB-induced cell death; also recorded: significant protection | trend of protection | significantly protect cells from oxidative insults; also recorded: significantly protect cells from oxidative stress | – | – | – | – | – | – | –
O=C(NC(=S)Nc1ccc(-c2ccc(CO)o2)cc1)c1cccs1 [DAC-002] | 54.7 | – | 52.7 | 56.6 | 221 | 8.31 | ≤ 221% | reduced the levels of Ac-H3K56, Ac-H3K14, Ac-H4K12 and Ac-H2B | significantly protect cells from DSB-induced cell death; also recorded: significant protection | trend of protection | – | – | – | – | – | – | – | –
COc1ccc(CNc2cc(C)ccc2C)c(OC)c1 [DAC-012] | 17.7 | – | 17.5 | 17.9 | 26 | – | – | – | significantly protect cells from DSB-induced cell death; also recorded: significant protection | – | trend of protection | – | – | – | – | – | – | –
CCC(=O)C1(Sc2nc3ccccc3[nH]2)CC(C)(C)OC1=O (stereo not shown) [DAC-009] | 18.7 | – | 15.1 | 22.2 | 12 | – | – | reduced the levels of Ac-H3K56, Ac-H3K14, Ac-H4K12 and Ac-H2B | significantly protect cells from DSB-induced cell death; also recorded: significant protection | – | – | – | – | – | – | – | – | –
COc1cc(O)c2c(=O)cc(-c3ccc(OC)c(-c4c(O)cc(O)c5c(=O)cc(-c6ccc(O)cc6)oc45)c3)oc2c1 [ginkgetin, reference compound] | 25.6 | – | – | – | 23 | – | – | – | – | – | – | 26 | 20 | 28 | 165 | 20 | – | –
trichostatin A [reference compound] | 0 | – | – | – | – | – | – | – | – | – | – | – | – | – | – | – | 0 | dose dependent inhibition of all HDAC isoforms
